Experimental data: patent US20130196996A1, “USE OF ISOXAZOLINE COMPOUNDS AND COMPOSITIONS IN BLADDER CANCER” (CPSI STOCKHOLDER TRUST, priority 2010, published 2013)
Values joined by “and” are separate entries in the source; they are usually repeats but may differ in a detail not shown here. Equal values may be shown once.

Columns and labels:
[1] = system: BBN model of bladder cancer; experiment: BBN model of bladder cancer, Experiment 1: bladder weight and pathology after oral gavage; type: in vivo, C57Bl/6 mice; conditions: for average bladder weight: Experiment 1, 25 mg/kg gavage weeks 16-22, control 0.5±0.5 gm; for mean of tissue involved with invasive disease (tumor burden) / upper tract obstruction (hydro-ureteronephrosis) at euthanasia: Experiment 1, 25 mg/kg gavage; for mean of tissue involved with invasive disease (tumor burden): SD ±30% (2705), ±32% (1306), control 81%; for upper tract obstruction (hydro-ureteronephrosis) at euthanasia: majority of control animals obstructed; for mean percentage of tumors representing invasive disease (FIG. 4E) / representative bladder tumor stage on H&E pathology: Experiment 1, 25 mg/kg; for mean percentage of tumors representing invasive disease (FIG. 4E): in words; for representative bladder tumor stage on H&E pathology: vehicle group infiltrative pT3 cancer; for Pieces involved / Pieces involved, in situ % / Pieces involved, inv % (invasive) / Squamous met and normal: Table 1, individual animal bladders, 25 mg/kg gavage weeks 16-22, 25 mg/kg
Protocol: (§1) Three-month old C57Bl/6 mice were purchased from Jackson Laboratories (Bar Harbor, Me.) and Charles River (Wilmington, Mass.). The animals were maintained at the University of Connecticut Center for Laboratory Animal Care under National Institutes of Health guidelines. All procedures were approved by an institutional animal care committee. The mice were housed in a controlled environment with a 12 hour light-12 hour dark cycle and provided food and water ad libitum.
(§2) All animals received BBN(N-butyl-N-(4-hydroxybutyl)-nitrosamine, TCI America, Portland, Oreg.) 0.05% in water in brown bottles for 22 weeks. BBN is known to induce cancer in the bladder. Mice were treated with either the CPSI compounds or vehicle for weeks 16-22. Timing of dosing was intended to correspond with the timeframe of tumor progression from CIS to invasive disease, as determined in prior experiments.
(§3) Thirty 3-month old male mice (n=10/group) were gavage fed either vehicle (PEG 300, methylcellulose) (control group), CPSI-2705, or CPSI-1306 at 25 mg/kg for weeks 16-22.
(§4) Animals were inspected daily for general health with weights recorded at least biweekly and more frequently in the last several weeks based on recorded weight loss. Animals were euthanized by CO2 inhalation and cervical dislocation. Bladders were harvested, weighed, placed in PBS/formaldehyde for 24 hours and then transferred to PBS. Upper tracts (kidney and ureters) were inspected for hydronephrosis. Bladders were assessed for tumor stage and grade and amount of pathologic involvement with invasive disease. Bladders were sectioned in the mid-sagital plane, laid flat on the medial surface and step sectioned for whole mount pathologic analysis. Haematoxylin and eosin (H&E) staining was carried out to assess for histology and pathology. Bladders were step sectioned, embedded in paraffin, serially sectioned and stained with H&E and assessed for tumor stage and grade and amount of pathologic involvement with invasive disease. A single pathologist reviewed all slides in a blinded manner to provide a pathological diagnosis. As a tumor develops in the bladder, the size and weight of the bladder increases. Bladder weight is therefore a useful surrogate for bladder tumor burden, representing the relative amount of bladder tumor that develops during continual exposure to the carcinogen, BBN.
(§5) Values shown are means±SEM. […] Statistical analysis was performed using SPSS® version 2.03 (San Rafael, Calif.). Differences were examined by one-way analysis of variance (ANOVA) followed by the post-hoc Dunnett's test.

[2] = system: BBN model of bladder cancer; experiment: BBN model of bladder cancer, Experiment 2: escalating dose of CPSI-1306; type: in vivo, C57Bl/6 mice; conditions: for mean bladder weights at euthanasia as surrogate for tumor volume, effect vs vehicle: p<0.05 Dunnett post-hoc
Protocol: as §1, §2
Sixty 3-month old male mice (n=˜8/group) were gavage fed an escalating dose of CPSI-1306 (0.001, 0.01, 0.1, 1.0, 10 or 25 mg/kg) or vehicle (PEG 400, H2O) for weeks 16-22.
as §4, §5

[3] = Body weight, general health and survival of BBN mice, Experiment 1; type: in vivo
Protocol: as §2, §3
Animals were inspected daily for general health with weights recorded at least biweekly and more frequently in the last several weeks based on recorded weight loss. Animals were euthanized by CO2 inhalation and cervical dislocation. Bladders were harvested, weighed, placed in PBS/formaldehyde for 24 hours and then transferred to PBS. Upper tracts (kidney and ureters) were inspected for hydronephrosis. Bladders were assessed for tumor stage and grade and amount of pathologic involvement with invasive disease. […] Bladders were step sectioned, embedded in paraffin, serially sectioned and stained with H&E and assessed for tumor stage and grade and amount of pathologic involvement with invasive disease. […]

[4] = Experiment 2, dose escalation, in words

Row | Structure (SMILES) | average bladder weight [1] [gm] | mean of tissue involved with invasive disease (tumor burden) [1] [%] | upper tract obstruction (hydro-ureteronephrosis) at euthanasia [1] | mean percentage of tumors representing invasive disease (FIG. 4E) [1] | representative bladder tumor stage on H&E pathology [1] | mean bladder weight, fold less than control group ([1]; Experiment 1, FIG. 1, p=0.06) [fold] | Pieces involved [1] | Pieces involved, in situ % [1] | Pieces involved, inv % (invasive) [1] | Squamous met and normal [1] | mean bladder weights at euthanasia as surrogate for tumor volume, effect vs vehicle ([2]; Experiment 2, 0.1 mg/kg gavage weeks 16-22) | mean bladder weights at euthanasia as surrogate for tumor volume, effect vs vehicle ([2]; Experiment 2, 1.0 mg/kg gavage weeks 16-22) | mean percentage of tumor representing invasive disease (FIG. 5B) [2, 4] | percentage of bladders in each dosing group with each pathologic stage (FIG. 5A) [2, 4] | general health appearance during drug treatment ([3]; Experiment 1, 25 mg/kg gavage, compared to the other two treatment arms) | animals died prior to completion of the study ([3]; Experiment 1, n=10/group, 25 mg/kg gavage, control also two)
1 | O=C(C[C@H]1CC(c2ccc(F)cc2F)=NO1)N1CCOCC1 [CPSI-1306] | 0.2±0.2 | 59 | none seen | Smaller tumors with a smaller percentage of invasiveness | focal pT3 with areas of normal mucosa | 2.5 | 4 (6×) and 2 and 7 and 6 and 3 − inv, 1 − in situ | 5% (2×) and (15 + 15%) and 10% (2×) and 15% | 25% and (15 + 15%) and (20%) and (90%) (2×) and (95%) and 35% and 70% and 80% and 65% | 70% (2×) and 80% and 10% (3×) and <5% and 55% and 25% and 20% | significant effect | significant effect | Smaller tumors with a smaller percentage of invasiveness | A decrease in the percentage of higher stage tumors | appeared healthier | –
2 | CN(C(=O)C[C@H]1CC(c2ccc(Cl)cc2)=NO1)C1CCCCC1 [CPSI-2705] | 0.3±0.3 | 62 | Fewer animals were noted to have obstruction | Smaller tumors with a smaller percentage of invasiveness | pT1 disease | – | 8 (3×) and 2 (2×) and 6 and 4 (2×) and 1 − inv, 3 − in situ and 10 | 10% (2×) and 5% (2×) and 20% | 80% and 85% and (60%) and (70%) and 60% and (30%) and 10% and 30% and (95%) (2×) | 10% (2×) and 40% and 30% (2×) and 70% (2×) and 65% and <5% (2×) | – | – | – | – | – | Two
